# Source: patent US8952024B2, “Herbicidal pyrimidone derivatives” (E I du Pont de Nemours and Company, priority 2009, dated 2015)
# Tests used:
# Format in all cases: in vivo
# [1] = system: giant foxtail (Setaria faberii); assay: Test B pre-/postemergence plant response
# In short: (§1)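 Visual injury, 0–100 scale (100 = complete control), rated against controls after 13 to 15 days in greenhouse. Pre-emergence: seeds in loam/sand soil, treated at planting. Post-emergence: 1- to 4-leaf plants (2 to 18 cm) in peat/vermiculite medium. Compounds formulated in non-phytotoxic solvent with surfactant.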
# [2] = system: cocklebur (Xanthium strumarium); assay: Test B pre-/postemergence plant response
# In short: as §1
# [3] = system: wild oat (Avena fatua); assay: Test B pre-/postemergence plant response
# In short: as §1
# [4] = system: bermudagrass (Cynodon dactylon); assay: Test B pre-/postemergence plant response
# In short: as §1
# [5] = system: soybean (Glycine max); assay: Test B pre-/postemergence plant response
# In short: as §1
# [6] = system: yellow nutsedge (Cyperus esculentus); assay: Test B pre-/postemergence plant response
# In short: as §1
# [7] = system: downy bromegrass (Bromus tectorum); assay: Test B pre-/postemergence plant response
# In short: as §1
# [8] = system: green foxtail (Setaria viridis); assay: Test B pre-/postemergence plant response
# In short: as §1
# [9] = system: wheat (Triticum aestivum); assay: Test B pre-/postemergence plant response
# In short: as §1
# [10] = system: velvetleaf (Abutilon theophrasti); assay: Test B pre-/postemergence plant response
# In short: as §1
# [11] = system: blackgrass (Alopecurus myosuroides); assay: Test B pre-/postemergence plant response
# In short: as §1
# [12] = system: morningglory (Ipomoea coccinea); assay: Test B pre-/postemergence plant response
# In short: as §1
# [13] = system: johnsongrass (Sorghum halepense); assay: Test B pre-/postemergence plant response
# In short: as §1
# [14] = system: kochia (Kochia scoparia); assay: Test B pre-/postemergence plant response
# In short: as §1
# [15] = system: ragweed (common ragweed, Ambrosia elatior); assay: Test B pre-/postemergence plant response
# In short: as §1
# [16] = system: chickweed (Stellaria media); assay: Test B postemergence plant response
# In short: (§2)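 Visual ratings from 0 (no effect) to 100 (complete control), made against controls 13–15 days after treatment, kept in a greenhouse. Compounds were applied postemergence to potted plants at the 1- to 4-leaf stage (2–18 cm).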
# [17] = system: canarygrass (Phalaris minor); assay: Test B postemergence plant response
# In short: as §2
# [18] = system: windgrass (Apera spica-venti); assay: Test B postemergence plant response
# In short: as §2
# [19] = 31 g ai/ha, postemergence, scale 0 to 100, 0 is no effect, 100 is complete control
# [20] = 62 g ai/ha, postemergence, 0 is no effect, 100 is complete control, 13 to 15 days
# [21] = Postemergence, 250 g ai/ha, scale 0 to 100 (0 no effect, 100 complete control)
# [22] = Postemergence, 125 g ai/ha, visual rating after 13 to 15 days, scale 0 (no effect) to 100 (complete control)
structure (smiles),measurement,setting,value
O=C1CCCC(O)=C1C(=O)c1cnc(C2CCCC2)n(-c2ccccc2)c1=O [Compound 92],"Plant response rating, Foxtail, Giant",[1]; [19],65
same,"Foxtail, Giant plant response rating (0 to 100 scale)",[1]; [20],75
same,"Plant response rating, Foxtail, Giant",[1]; [21],98
same,"Plant response rating, Cocklebur",[2]; [19],25
same,Cocklebur plant response rating (0 to 100 scale),[2]; [20],80
same,"Plant response rating, Cocklebur",[2]; [22],98
same,"Plant response rating, Cocklebur",[2]; [21],98
same,"Plant response rating, Oat, Wild",[3]; [19],0
same,"Oat, Wild plant response rating (0 to 100 scale)",[3]; [20],5
same,"Plant response rating, Oat, Wild",[3]; [21],10
same,"Plant response rating, Bermudagrass",[4]; [19],20
same,Bermudagrass plant response rating (0 to 100 scale),[4]; [20],80
same,"Plant response rating, Bermudagrass",[4]; [22],85
same,"Plant response rating, Bermudagrass",[4]; [21],85
same,"Plant response rating, Soybean",[5]; [19],90
same,Soybean plant response rating (0 to 100 scale),[5]; [20],98
same,"Plant response rating, Soybean",[5]; [21],98
same,"Plant response rating, Nutsedge, Yellow",[6]; [19],45
same,"Nutsedge, Yellow plant response rating (0 to 100 scale)",[6]; [20],65
same,"Plant response rating, Nutsedge, Yellow",[6]; [21],75
same,"Plant response rating, Bromegrass, Downy",[7]; [19],0
same,"Bromegrass, Downy plant response rating (0 to 100 scale)",[7]; [20],5
same,"Plant response rating, Bromegrass, Downy",[7]; [22],20
same,"Plant response rating, Bromegrass, Downy",[7]; [21],20
same,"Plant response rating, Foxtail, Green",[8]; [19],75
same,"Foxtail, Green plant response rating (0 to 100 scale)",[8]; [20],80
same,"Plant response rating, Foxtail, Green",[8]; [21],98
same,"Plant response rating, Wheat",[9]; [19],0
same,Wheat plant response rating (0 to 100 scale),[9]; [20],0
same,"Plant response rating, Wheat",[9]; [21],0
same,"Plant response rating, Velvetleaf",[10]; [19],95
same,Velvetleaf plant response rating (0 to 100 scale),[10]; [20],100
same,"Plant response rating, Velvetleaf",[10]; [21],100
same,"Plant response rating, Blackgrass",[11]; [19],0
same,Blackgrass plant response rating (0 to 100 scale),[11]; [20],0
same,"Plant response rating, Blackgrass",[11]; [22],5
same,"Plant response rating, Blackgrass",[11]; [21],5
same,"Plant response rating, Morningglory",[12]; [19],80
same,Morningglory plant response rating (0 to 100 scale),[12]; [20],95
same,"Plant response rating, Morningglory",[12]; [21],100
same,"Plant response rating, Johnsongrass",[13]; [19],20
same,Johnsongrass plant response rating (0 to 100 scale),[13]; [20],85
same,"Plant response rating, Johnsongrass",[13]; [21],100
same,"Plant response rating, Kochia",[14]; [19],75
same,Kochia plant response rating (0 to 100 scale),[14]; [20],90
same,"Plant response rating, Kochia",[14]; [21],100
same,"Plant response rating, Ragweed",[15]; [19],40
same,Ragweed plant response rating (0 to 100 scale),[15]; [20],60
same,"Plant response rating, Ragweed",[15]; [21],75
same,"Plant response rating, Chickweed",[16]; [19],90
same,Chickweed plant response rating (0 to 100 scale),[16]; [20],95
same,"Plant response rating, Chickweed",[16]; [22],98
same,"Plant response rating, Chickweed",[16]; [21],100
same,"Plant response rating, Canarygrass",[17]; [19],0
same,Canarygrass plant response rating (0 to 100 scale),[17]; [20],0
same,"Plant response rating, Canarygrass",[17]; [22],0
same,"Plant response rating, Canarygrass",[17]; [21],0
same,"Plant response rating, Windgrass",[18]; [19],0
same,Windgrass plant response rating (0 to 100 scale),[18]; [20],50
same,"Plant response rating, Windgrass",[18]; [21],90
